Source: patent US9957236B2, “Selective inhibitors interfering with fibroblast growth factor receptor and FRS2 interaction for the prevention and treatment of cancer and other diseases” (LIMITED LIABILITY COMPANY “RUSSIAN PHARMACEUTICAL …, priority 2014, dated 2018)

Columns and labels:
[1] = in vivo
Description: Besides, acute toxicity of inhibitor RPT835 was studied in the following volume in a separate research: • Acute toxicity of the medicine was researched. […] The state of the animals after acute administration testifies of good tolerability of the medicine in doses exceeding the maximal therapeutic ones (about 4.3 mcg/kg) tens—hundreds of times. […]

[2] = test system: T47D breast cancer cells; test: Crystal Violet proliferation assay, T47D; format: cell-based; details: hardly expressed FGFR2, bFGF 100 ng/ml, 7 days
Description: (§1) This research used additional cell lines: SKOV3 (ovarian cancer, ATCC # HTB-77), HS578T (breast cancer, ATCC # HTB-126), T47D (breast cancer, ATCC #HTB-1336), modified line of non-small cells lung cancer A549, line of metastatic melanoma of skin Mel Kor (RF Patent No. 2287578), and additional study of antiangiogenic activity—cell line SVEC-4-10 (endothelial cells, ATCC #CRL-2181).
(§2) The cells were cultivated in environment RPMI-1640 (PANECO) (SKOV3, HS578T, T47D, Mel-Kor) or DMEM (PANECO) (SVEC-4-10) containing 10% of embryonal serum cattle (FCS, HyClone), 2 mM glutamine (PANECO), antibiotics (100 IU/mL penicillin and […] streptomycin (all PANECO)) at 37° C. and 5% CO2. Cells at 70-80% monolayer were used for the experiments.
(§3) The cells were planted in low density (30 t of cells/ml) in triplets on a 96-cavity plate in an environment containing 0.1% of FCS serum. […] Growth of cells was determined by the modified “Crystal Violet mitogenic method” for 7 days after the experiment start. […] The dye was dissolved in ethanol and measured on a spectrophotometer at 540-560 nm. The curve of cell proliferative activity inhibition was built by the dependence of the percent of the cell quantity (Y axis) on concentration of inhibitor RPT835 in the cavity of the plate (X axis). […]

[3] = test system: SKOV3 ovarian cancer cells; test: Crystal Violet proliferation assay, SKOV3; format: cell-based; details: SKOV3, low FGFR2 expression; bFGF 100 ng/ml, 7 days
Description: as §1, §2, §3

[4] = test system: intracellular kinases; test: Intracellular kinases phosphorylation in breast cancer cells MDA MB 134; format: cell-based; details: MDA MB 134 cells
Description: The purpose of this research was assessment of specific action of inhibitor RPT835 specified in this invention with formula II, on interaction of […] and FRS2 and assessment of influence on interaction of other types of FGFR and FRS2. For the experiment, 2 cell lines were selected: • stomach cancer KATO III, expressing FGFR2, and • breast cancer MDA MB 134, expressing FGFR1.
The research procedure was the same as in the previous examples: the cells were cultivated in presence of RPT835 followed by stimulation with FGF-2 and heparin. The other part of the cells was cultivated in presence of RPT835. Phosphorylation of FGFR1 (in breast cancer cells) and FGFR2 (in stomach cancer cells), and also FRS2a (in the both cell lines) and some intracellular kinases (in breast cancer cells) was assessed using manual and automated Western blotting.

[5] = test system: anti-FGF-2 antibody; test: Enzyme-linked immune assay, FGF-2 binding to immobilized anti-FGF-2 antibody; details: concentration of 1 to 1,000 nM
Procedure: The next task was to assess influence of inhibitor RPT835 on binding of FGF-2 and FGFR2-Fc. […] In order to exclude unspecific effect of RPT835 on binding, one more enzyme-linked immune assay was carried out, in which the cavities were covered with immobilized anti-FGF-2 antibody. FGF-2±RPT835 in different concentrations is added to the cavities.

[6] = test system: modified line of non-small cells lung cancer A549; test: Crystal Violet proliferation assay, modified A549; format: cell-based; details: Homo sapiens; modified A549 with pronounced expression of FGFR2
Description: as §1, §2, §3

[7] = test system: p44/42(MAPK), Akt, mTOR, p70S6; test: Phosphorylation of intracellular kinases in KATO III cells; format: cell-based; details: FGF-2 and heparin
Procedure: In order to access the effect of inhibitor RPT835, characterized in his invention by formula II, on phosphorylation of the listed kinases, stomach cancer cells KATO III, which express FGFR2, was used. FGF-2 in concentration 1 mg/ml and heparin 10 mg/ml was added to the cells for stimulation of FGFR. RPT835 was added in various concentrations. Part of the cells left without addition of the inhibitor, and a part of the cells—without addition of both the inhibitor, and stimulating agents (control groups).
In order to assess the phosphorylation level, 2 standard methods were used: • Western-blotting using manual work. • Automatic capillary electrophoresis and immune-detection using automatic system Wes™ (ProteinSimple; SantaClara, Calif.).

## Cc1cc([N+](=O)[O-])c(NS(=O)(=O)c2cccc(C(=O)O)c2)cc1-c1cccnc1 [RPT835, 3-(N-(4-methyl-2-nitro-5-(pyridin-3-yl)phenyl)sulfamoyl)benzoic acid]
[1]
  irritating effect on the mucous membrane of the gastrointestinal tract: does not have an irritating effect
[2]
  inhibition of proliferative activity: did not block
[3]
  inhibition of proliferative activity: moderate effect
[4]
  phosphorylation of intracellular kinases: did not have influence
[5]
  binding of FGF-2 with anti-FGF-2 antibody: did not influence on binding of FGF-2 with anti-FGF-2 antibody
[6]
  IC50: 0.01 µM
[7]
  activity (phosphorylation) of p44/42(MAPK), Akt, mTOR, p70S6 compared to cells stimulated only with FGF-2: did not change
